This is an account of results in patent US20160038521A1, “THERAPEUTIC METHODS” (UNIVERSITY OF IOWA RESEARCH FOUNDATION, priority 2013, published 2016).

SMILES strings stand for the structures. Entries after “also recorded” stand apart in the source; their conditions may differ.

One series relates to Cln3−/− mice. The series can be described thus: Autofluorescent inclusions in cingulate cortex brain sections. It is filed as in vivo, mouse. Conditions: gavage 20 mg/kg daily for two weeks, p<0.05. An excerpt: FIG. 11: CBX treatment reduces Cln3^−/− autofluorescent inclusions. Thin (50 μm) brain sections from mice treated as in were imaged under low magnification in the red channel to detect autofluorescence. Four images were taken of each cingulate cortex, and fluorescence intensity averaged in ImageJ. Data represent a minimum of 4 mice per group. Error bars±SEM (1-way ANOVA with TUKEY post-hoc, *, p<0.05) Scale bar=200 μm.

In a further series the test system is Cln3−/− MBECs. The series can be described thus: Fluid-phase endocytosis, uptake of fluorescent dextran. It is filed as cell-based, mouse. As to conditions: 25 μM CBX for 30 minutes. As to the method:
FIG. 5. Correction of fluid-phase endocytosis by CBX. Hoechst 33342 to label DNA (blue) and saline (mock) or 25 μM CBX was added to cell culture media for 30 minutes. Fluid-phase endocytic uptake in the presence of CBX or PBS was determined by uptake of fluorescent dextran (green). Extracellular dextran was quenched by Red-40 and cells were imaged by epifluorescence. ImageJ was used to calculate fluorescence intensity. Data represent the mean of three independent experiments, error bars±SEM (1-way ANOVA with TUKEY post-hoc, ***, p<0.0001). Scale bar=10 μm.

The next series relates to caveolin-1. Kind of series: Caveolin-1 transport to the cell membrane, immunofluorescence. It is filed as cell-based, mouse. Conditions: CLN3−/− MBEC, 25 μM for 2 h. As to the method:
FIG. 6. Carbenoxolone restores caveolin-1 transport to the cell membrane in CLN3-null JNCL mouse brain endothelial cells. CLN3-expressing (CLN3-R) and CLN3-null (CLN3−/−) MBEC were untreated or cultured with 25 μM carbenoxolone for 2 h, then immunofluorescently stained for caveolin-1. Without treatment, caveolin-1 transport to the plasma membrane is impaired in CLN3−/− MBEC. Carbenoxolone restores normal caveolin-1 trafficking to the plasma membrane.

Series [1] relates to plasma membrane cholesterol. Kind of series: Cholesterol distribution at the plasma membrane, Amplex Red Cholesterol assay. It is filed as cell-based, mouse. As to conditions: CBX 25 μM for 2 hours vs mock. How it is done:
Plasma membranes are detergent-free fractionated and cholesterol levels in each fraction are quantified by the Amplex Red® Cholesterol assay kit. A representative experiment from four independent experiments is shown with CBX 25 μM for 2 hours or mock treatment.

The subject of the next series is Cdc42. Kind of series: Cdc42 activity (Cdc42-GTP levels) in mouse brain endothelial cells. Conditions: for Cdc42 activity: CLN3−/− MBEC, p<0.05. It is filed as cell-based. An excerpt: FIGS. 2A and 2B. Carbenoxolone reduces Cdc42 activity in CLN3-null JNCL mouse brain endothelial cells (MBEC). […] FIG. 3: CBX corrects Cdc42-GTP levels. […] Data represent the mean of three independent experiments, error bars±SEM (1-way ANOVA with TUKEY post-hoc, (*, p<0.05, n.s.=not significant).

The conditions of series [2]: Leshchenko et al., 2006; cited from earlier work.
Series [3] concerns CLN3-null JNCL mouse brain endothelial cells. Kind of series: Scratch wound cell migration, live cell microscopy. It is filed as cell-based. Conditions: CLN3−/− MBEC, CBX vs mock, overnight. How it is done: FIG. 4. Carbenoxolone normalizes migration of CLN3-null JNCL mouse brain endothelial cells. Cell migration induced by a scratch in cell monolayers was measured using live cell microscopy and quantified by T-Scratch software. CLN3-expressing (CLN3-R) and CLN3-null (CLN3-/-) MBEC were grown to confluence. A gap in the monolayer was made by “[…] wound”, and the rate of cell migration to fill in the gap was monitored by live cell microscopy. CLN3-/- MBEC show a delayed ability to fill in the gap. Carbenoxolone treatment corrects this defect. Cells were either treated with CBX or left untreated (mock) in the presence or absence of CBX. Data are collected overnight. Data represent the mean of three independent experiments, error bars±SEM (2-way ANOVA with Bonferroni post-hoc correction, *, p<0.05).

In the case of `CC1(C)[C@@H](OC(=O)CCC(=O)O)CC[C@]2(C)[C@H]3C(=O)C=C4[C@@H]5C[C@@](C)(C(=O)O)CC[C@]5(C)CC[C@@]4(C)[C@]3(C)CC[C@@H]12` [CBX, carbenoxolone], the “Autofluorescent inclusions (fluorescence intensity, cingulate cortex)” value in the series on Cln3−/− mice is recorded as “reduces”. Also, in the series on Cln3−/− MBECs, the “Fluid-phase endocytosis (fluorescent dextran uptake)” value was “Correction; also recorded: increases fluid-phase endocytosis”. Besides, the “Caveolin-1 transport to the plasma membrane” value in the series with caveolin-1 is given as “restores”. Further, the “Cholesterol distribution at the plasma membrane” value in series [1] was “corrects cholesterol distribution”. In addition, in the series with Cdc42 (CLN3-R (CLN3-expressing) MBEC, CBX 50 μM for 2 h), the Cdc42 activity level entry is “does not alter”. Further, the Cdc42 activity entry in the series with Cdc42 (CBX 50 μM for 2 h) is “effectively normalized”; in the series with Cdc42 (CBX 50 μM for 2 h, listed as Carbenoxolone), “significantly reduces”. In addition, the Cdc42-GTP levels entry in the series on Cdc42 (Cln3−/− MBECs, CBX 25 μM for 2 hours vs saline (mock)) is listed as “corrects; also recorded: reduces”. Further, in series [2], the “Ability to pass the blood-brain barrier (BBB)” value was “little or no ability”. Further, the “Cell migration (rate of filling scratch gap)” value in series [3] is “increases cell migration”; in series [3] (listed as Carbenoxolone) it was “normalizes”.
